SMILES | melting point
O=C(O)CN1C(=O)C(=Cc2cc(Cl)ccc2O)SC1=S | 243 to 247 °C
CCC(=O)Oc1cc(OC)cc(OC)c1C(=O)C=Cc1ccc2c(c1)OCO2 | 134 °C
O=CC1(c2ccc(Cl)cc2)CC1 | 38 to 41 °C
COc1ccc(F)cc1C(C)(C)CC(O)(Cc1ccccn1)C(F)(F)F (configuration not stated) | 94 to 96 °C
CCN(CC)Cc1nc(-c2ncn3c2[C@@H]2CCN2C(=O)c2c(Br)cccc2-3)no1 | 206 to 209 °C
Cc1ccc2onc(-c3ccc(Cl)cc3)c2c1 | 95 °C
CCc1nc2c(N)nc3cccnc3c2n1CC1(O)CCOCC1 | > 250 °C
CCn1c(N)c(C(=O)NC)c(=O)c2cnc(-c3ccc(NC(=O)NCc4cccnc4)cc3)nc21 | 250 °C
O=C(c1ccc(F)cc1)c1ccc2n1CCC2C(=O)O (configuration not stated) | 165 °C
COc1ccc(C(=O)Cc2c(Cl)cncc2Cl)c2c1OC(c1ccccc1)(c1ccccc1)O2 | 156 to 157 °C
CCCCCCCCCCCCCCCCCCCCCCSCCC(=O)NN | 106 °C
CCOC(=O)c1cnc2c(cnn2Cc2ccco2)c1O | 103 to 106 °C
COCC(=O)Nc1ccc(-c2ccncc2)cc1 | 177 to 178 °C
O=C(NCc1ccccn1)Nc1cc(NC(=O)c2ccccc2)ccn1 | 222 to 223 °C
CS(=O)(=O)N[C@@H]1CCCC[C@H]1Nc1nc(Nc2ccc3c(c2)CNCCS3)ncc1Cl | 141 to 143 °C
NC(=O)c1ccc2[nH]cc(CCCCN3CC=C(c4ccccc4)CC3)c2c1 | 200 to 205 °C
CCOC(=O)N(C)CCCC1=CC2(CCCC2)c2ccccc21 | 90 °C
COc1ccc2c(c1)C(=O)N(c1ccc3c(c1)NCCN3)C2 | 159 to 163 °C
COCC1CN(c2ccc(C3CCC(OCCCCC(N)=O)CC3)cc2)C(=O)O1 (racemic) | 72 to 74 °C
Cc1ccc(-c2ncc(N(CCCCOCC(=O)O)C(C)C)nc2-c2ccc(C)cc2)cc1 | 155 to 156 °C
COc1cc(C(=O)c2ccc(C(F)(F)F)cc2)ccc1O | 97 °C

SMILES | melting point
N#CCC(=O)c1cccn1Cc1ccccc1 | 119 to 120 °C
CC(C)CN1CCCC1CNC(=O)c1cc(S(N)(=O)=O)cc2c1OC(C)C2 (configuration not stated) | 182 to 184 °C
O=C(O)C1CCc2c([nH]c3ccc(Cl)cc23)C1 (configuration not stated) | 196 to 197 °C
Cc1cc(CC(O)CO)c(OCc2ccccc2)c2c1CCC2 (configuration not stated) | 77 to 80 °C
CN(C)CCCn1nnc(-c2ccc3c(c2)S(=O)(=O)c2ccccc2C3=O)n1 | 141 to 142 °C
CCCCC#CCCOc1c(I)cc(I)cc1I | 45 to 49 °C
COCCOc1ccc(C#CC2(O)CN3CCC2CC3)cc1 (configuration not stated) | 148 to 149 °C
COc1ccc(C(=O)N2CCc3cc(OCc4ccccc4)c(OC)cc3C2=O)cc1OC | 200 to 201 °C
CSCCn1c(C)nc2c(N)nc3ccccc3c21 | 193 to 195 °C
CCc1ccc2nc(N)nc(Nc3ccccc3C)c2c1 | 263 to 265 °C
CC(C)(C)OC(=O)N1C(CC2CCCCC2)C(C(O)CNS(=O)(=O)C(c2ccccc2)c2ccccc2)OC1(C)C (configuration not stated) | 58 to 65 °C
CCOC(=O)c1c(-c2ccccc2)c2cc(Cl)ccc2n(C)c1=O | 124 to 125 °C
O=Cc1cccc(C=O)c1O | 122 to 125 °C
CCOC(=S)c1cc(C)c(Br)cc1N | 48 to 50 °C
N#Cc1nn(-c2c(Cl)cc(C(F)(F)F)cc2Cl)c(Cl)c1C=O | 145 to 146 °C
C#CCOCCn1c(CN2CCN(C)CC2)nc2cccnc21 | 117 °C
CC1OC(n2cc(F)c(NC(=O)c3ccccc3)nc2=O)C(OC(=O)c2ccccc2)C1OC(=O)c1ccccc1 (configuration not stated) | 158 to 160 °C
NCC(=O)Nc1ccc(Br)cc1C(=NCCO)c1ccccc1F | 167 to 168 °C
CSc1ccc(-c2nn(Cc3ccc(Cl)cc3Cl)c(=S)cc2-c2ccc(F)cc2)cc1 | 154 °C
O=C(O)CNC(=O)C=C(c1ccc(Cl)cc1)c1ccc(Cl)cc1 | 166 to 168 °C

Now from value to compound:

melting point | SMILES
126 °C | CC(C(=O)O)c1cccc(NC(=O)NCC(=O)N2[C@@H](c3ccccc3F)SC[C@H]2C(=O)OC(C)(C)C)c1 (some centres not stated)
145 to 146 °C | COc1ccc(COC2CCCn3c2c(-c2ccccc2)c2cc(C)c(C)cc2c3=O)cc1 (configuration not stated)
204 to 206 °C | O=CNNc1ccc(NC(=S)N2CCOCC2)cc1
56 to 59 °C | CC(C)NC(=O)c1c(OS(C)(=O)=O)cccc1C(=O)O
180 to 182 °C | Oc1c(F)ccc(-c2c3ccccc3c(Br)c3sc4ccccc4c23)c1F
50 to 52 °C | CCCCCCCNc1ccncc1
121 °C | Cc1ccc(S(=O)(=O)N2[C@@H](CCn3cccn3)CC[C@H]2c2ccc(F)cc2)cc1 (racemic)
191 to 192 °C | N[C@H](CCC(=O)N1[C@H](C(=O)O)C[C@@H]2CCCC[C@@H]21)C(=O)O
153 to 155 °C | CC(C)c1cccc(C(C)C)c1NC(=O)CN1CCN(CCSc2nc3cccc([N+](=O)[O-])c3o2)CC1
206 to 208 °C | O=C(Nc1ccc2cc(CN3CCCC3)cnc2c1F)c1ccc(-c2ccc(Cl)cc2)cc1
99.5 to 100 °C | CC(C)CCCC(C)C1CCC2C3CC=C4CC(Br)CCC4(C)C3CCC12C (configuration not stated)
133 to 137 °C | NC(=O)N1CC(Oc2ccccn2)C1
69 to 71 °C | CCC1(c2cccc(OC)c2)CCCC(=O)N(C)C1 (configuration not stated)
169 to 172 °C | C=CCNc1cc(C(=O)O)cc(S(N)(=O)=O)c1-c1ccccc1
249 to 250 °C | CN(C(=O)c1cnc(N2CCNC2=O)nc1N)c1cccc(C(F)(F)F)c1
82 to 84 °C | COC(=O)C1=C(CF)NC(C)=C(C(=O)OC(C)C)C1c1c(F)cccc1C(F)(F)F (configuration not stated)

melting point | SMILES
96 to 98 °C | CCC(=O)NCCC1CNc2ccc3c(c21)CCO3 (configuration not stated)
> 300 °C | CCOC(=O)c1cccc(-c2cc3c(Nc4cccc(Cl)c4)ncnc3[nH]2)c1
62 to 64 °C | COC(=O)C(C)=Cc1ccc(OCCCNc2ccc(Cl)cc2)cc1
200 to 203 °C | COc1ccc(C(=O)Nc2nc3ccc(N)cc3c(NCc3cccs3)c2C#N)cc1
194 to 195 °C | O=C1NC(CCc2cc(C(F)(F)F)cc(C(F)(F)F)c2)C(Cc2c[nH]c3ccccc23)N1 (configuration not stated)
100 to 108 °C | CCOC(=O)N(c1cccc(C(F)(F)F)c1)c1ccccc1-n1nc(C(=O)O)nc1CCl
74.7 to 75.9 °C | O=C(O)COCCOc1c(-c2cccc(C(F)(F)F)c2)cc(C(=O)NCCCCCCc2ccccc2)cc1-c1cccc(C(F)(F)F)c1
250 to 251 °C | O=C(c1sc(-c2nc3ccccc3[nH]2)nc1-c1ccco1)C1CCOCC1
248 °C | Cc1nc(NC(=O)c2cnn3c(C(F)F)cc(-c4ccc(C(F)(F)F)cc4)nc23)sc1S(=O)(=O)NC(C)(CO)CO
155 to 157 °C | CCCN(C=Nc1ccc2nnc(-c3ncc([N+](=O)[O-])n3C)n2n1)CCC
89 to 91 °C | COC(=O)c1cc(-n2c(Cl)nc(C(F)(F)F)cc2=O)c(F)cc1Cl
129 to 130 °C | O=C(NCCCSc1ccncc1)c1cc(Br)c(Br)s1
143 to 145 °C | C1=CC2=c3ccccc3=NC2=C1
72 °C | CC(C)(C)OC(=O)CS
143 to 144 °C | O=C1N[C@@H](C=Cc2ccccc2)[C@H]1O
